The record followed here is patent US9296708B2, “Chimeric small molecules for the recruitment of antibodies to cancer cells” (YALE UNIVERSITY, priority 2008, dated 2016).

By Ki is commonly meant the dissociation constant of the complex between target and ligand, obtained from inhibition or displacement. One may read the IC50 as the concentration that gives 50% inhibition. Higher therefore signals weaker potency. A word on the Km: it is the substrate concentration at which the rate is half of its maximum.

What all share (assay type): biochemical
In assay [1] the target is human recombinant PSMA (rhPSMA) (Homo sapiens (Human), UniProt Q04609). Briefly: NAALADase inhibition experiments (Amplex Red glutamate release). The note with it: human recombinant PSMA (R&D Research); average of three runs ± standard deviation. The procedure: A 10 mM stock solution of N-acetyl-aspartyl-glutamate (NAAG) in 40 mM NaOH was diluted to 40 μM in Tris buffer (0.1M Tris-HCl, pH=7.5), and was added to 384 well plate (25 μl per well). […] For IC50 measurements, solutions of recruiting molecule 3 in water (2 μL per well, dilution series) were added to wells. For all other wells, 2 μL of water was added. To initiate reactions, rhPSMA (R&D research) diluted in Tris buffer (20 pg/mL), was added to each well (25 μl per well). For negative controls, Tris buffer was added (25 μl per well). The plate was covered and incubated for 15 minutes, at which time the protein was deactivated by heating the plate to 95° C. for 3 minutes. After plate was allowed to cool, glutamic acid release was visualized using an Amplex®-Red glutamic acid/glutamate oxidase assay kit (Invitrogen). Km and IC50 values were calculated using graphpad prism software, and Ki was calculated from these values using the Cheng-Prusoff Equation. This process was run in triplicate, and is reported in the manuscript as the average of three runs±standard deviation.
human recombinant PSMA (rhPSMA), sequence (Q04609 44-750 limits assumed): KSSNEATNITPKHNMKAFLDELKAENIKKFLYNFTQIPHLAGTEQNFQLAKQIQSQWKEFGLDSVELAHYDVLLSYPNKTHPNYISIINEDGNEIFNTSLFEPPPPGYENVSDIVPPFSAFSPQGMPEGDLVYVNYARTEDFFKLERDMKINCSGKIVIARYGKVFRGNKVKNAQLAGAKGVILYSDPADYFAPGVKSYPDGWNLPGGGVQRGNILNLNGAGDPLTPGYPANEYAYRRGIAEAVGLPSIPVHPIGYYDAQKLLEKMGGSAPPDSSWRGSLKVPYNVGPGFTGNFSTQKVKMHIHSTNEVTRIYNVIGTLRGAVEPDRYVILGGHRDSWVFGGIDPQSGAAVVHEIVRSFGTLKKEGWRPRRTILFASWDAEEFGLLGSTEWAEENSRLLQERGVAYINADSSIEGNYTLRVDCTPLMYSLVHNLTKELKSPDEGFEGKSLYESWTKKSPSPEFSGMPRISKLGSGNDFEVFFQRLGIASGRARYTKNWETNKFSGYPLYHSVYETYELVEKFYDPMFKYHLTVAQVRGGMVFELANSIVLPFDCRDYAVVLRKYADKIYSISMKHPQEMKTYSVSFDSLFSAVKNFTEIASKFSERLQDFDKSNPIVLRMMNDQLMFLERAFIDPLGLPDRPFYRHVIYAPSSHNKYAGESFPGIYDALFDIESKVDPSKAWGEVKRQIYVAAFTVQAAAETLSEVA

For assay [2], the target named is T1, rhPSMA (Homo sapiens (Human), UniProt Q04609). Description: PSMA inhibition assay (NAAG hydrolysis, Amplex Red). The note with it: for IC50: mean of triplicate experiments ± SD.
T1 sequence (Q04609 44-750): as the sequence (Q04609 44-750 limits assumed) above
The target of assay [3] is T1, rhPSMA. Description: Measurement of PSMA Km. The conditions noted are these: NAAG substrate, 40 μM-312.5 nM, room temperature 15 min. On the procedure: A 10 mM solution of N-acetyl-aspartylglutamate (NAAG) in 40 mM NaOH, and was then diluted in Reaction Buffer (100 mM Tris-HCl, pH 7.5) to a final NAAG concentration of 40 µM. The solution was added to a 384 well plate (20 µL per well). […] Reaction Buffer (20 µL) was added to the Km control series. The plate was incubated at room temperature for 15 min, and then heated to 95° C. for 3 minutes. The plate was allowed to cool to room temperature, and glutamic acid levels were measured using a commercially available Amplex®—Red Glutamic Acid/Glutamate Oxidase Assay Kit (Invitrogen). Fluorescence intensities were measured using a Synergy 2 multiwell plate reader (Biotek), fitted with excitation and emission filters of 545 nm and 590 nm, respectively. […] This value is consistent with that reported in the literature^7 and was employed in subsequent Ki calculations (see below).

Where [4] appears, read: Table 2, Cheng-Prusoff equation, Km 925 nM.
[5] abbreviates: Table 1, from IC50 and Km via Cheng-Prusoff equation.

Residues, ends and D or L forms follow the SMILES beside them.

Consider `CC(C)(C)OC(=O)CC[C@H](NC(=O)N[C@@H](CCCCn1cc(COCCOCCOCCOCCNc2ccc([N+](=O)[O-])cc2[N+](=O)[O-])nn1)C(=O)OC(C)(C)C)C(=O)OC(C)(C)C` [PC-ARM (3), (S)-di-tert-butyl 2-(3-((S)-1-tert-butoxy-6-(4-(13-(2,4-dinitrophenylamino)-2,5,8,11-tetraoxamidecyl)-1H-1,2,3-triazol-1-yl)-1-oxohexan-2-yl)ureido)pentanedioate], for which the Ki in assay [1] was found to be 0.9 ± 0.3 nM.

In the case of `O=C(O)CC[C@H](NC(=O)N[C@@H](CCCCn1cc(COCCOCCNc2ccccc2[N+](=O)[O-])nn1)C(=O)O)C(=O)O` [Compound 13, (S)-2-(3-((S)-1-carboxy-5-(4-((2-(2-(2-nitrophenylamino)ethoxy)ethoxy)methyl)-1H-1,2,3-triazol-1-yl)pentyl)ureido)pentanedioic acid], the Ki is 0.078 ± 0.007 nM at rhPSMA [2] (setting [4]) and 0.06 nM at rhPSMA [2] (Table 2 analogues). The compound further had an IC50 against rhPSMA [2] (Table 2) of 1.78 ± 0.15 nM.

For the compound `CC(=O)N[C@@H](CC(=O)O)C(=O)N[C@@H](CCC(=O)O)C(=O)O` [NAAG, N-acetyl-aspartylglutamate] (Ac-Asp-Glu-OH), the Km at rhPSMA [3] is 0.925 µM.

With `O=C(O)CC[C@H](NC(=O)N[C@@H](CCCCn1cc(COCCOCCNC2CCCCC2)nn1)C(=O)O)C(=O)O` [Compound 17, (S)-2-(3-((S)-1-carboxy-5-(4-((2-(2-(cyclohexylamino)ethoxy)ethoxy)methyl)-1H-1,2,3-triazol-1-yl)pentyl)ureido)pentanedioic acid], the affinity at rhPSMA [2] (setting [4]) corresponds to a Ki of 15.1 nM. The same compound showed a half-maximal inhibitory concentration (IC50) against rhPSMA [2] (Table 2) of 342 ± 170 nM.

Compound `COCCOCCOCc1cn(CCCC[C@H](NC(=O)N[C@@H](CCC(=O)O)C(=O)O)C(=O)O)nn1` [9, MeO-P2, (S)-2-(3-((S)-1-carboxy-5-(4-((2-(2-methoxyethoxy)ethoxy)methyl)-1H-1,2,3-triazol-1-yl)pentyl)ureido)pentanedioic acid] displayed an inhibitory constant (Ki) on rhPSMA [2] (setting [5]) of 1.81 ± 0.42 nM. Moreover, at rhPSMA [2] (Table 1, 20 μM NAAG), the IC50 stood at 40.8 ± 9.4 nM.

As to `O=C(O)CC[C@H](NC(=O)N[C@@H](CCCCn1cc(COCCOCCNc2ccc([N+](=O)[O-])cc2)nn1)C(=O)O)C(=O)O` [Compound 14, (S)-2-(3((S)-1-carboxy-5-(4-((2-(2-(4-nitrophenylamino)ethoxy)ethoxy)methyl)-1H-1,2,3-triazol-1-yl)pentyl)ureido)pentanedioic acid], the inhibition constant (Ki) amounted to 0.06 ± 0.008 nM on rhPSMA [2] (setting [4]) and 0.078 nM at rhPSMA [2] (Table 2 analogues). In addition, at rhPSMA [2] (Table 2), the IC50 amounted to 1.36 ± 0.18 nM.

For the compound `O=C(O)CC[C@H](NC(=O)N[C@@H](CCCCn1cc(COCCOCCNc2ccccc2)nn1)C(=O)O)C(=O)O` [Compound 15, (S)-2-(3-((S)-1-carboxy-5-(4-((2-(2-(phenylamino)ethoxy)ethoxy)methyl)-1H-1,2,3-triazol-1-yl)pentyl)ureido)pentanedioic acid], the inhibition constant (Ki) came to 0.73 ± 0.28 nM at rhPSMA [2] (setting [4]) and 0.73 nM at rhPSMA [2] (Table 2 analogues). This compound also came in with a concentration for half-maximal inhibition (IC50) at rhPSMA [2] (Table 2) of 16.6 ± 6.3 nM.

As to `COc1ccc(NCCOCCOCc2cn(CCCC[C@H](NC(=O)N[C@@H](CCC(=O)O)C(=O)O)C(=O)O)nn2)cc1` [Compound 16, (S)-2-(3-((S)-1-carboxy-5-(4-((2-(2-(4-methoxyphenylamino)ethoxy)ethoxy)methyl)-1H-1,2,3-triazol-1-yl)pentyl)ureido)pentanedioic acid], the inhibition constant (Ki) on rhPSMA [2] (setting [4]) and at rhPSMA [2] (Table 2 analogues) was 0.97 nM each time. Besides, the IC50 against rhPSMA [2] (Table 2) was determined as 21.9 ± 9.9 nM.

`COCc1cn(CCCC[C@H](NC(=O)N[C@@H](CCC(=O)O)C(=O)O)C(=O)O)nn1` [8, MeO-P0, (S)-2-(3-((S)-1-carboxy-5-(4-(methoxymethyl)-1H-1,2,3-triazol-1-yl)pentyl)ureido)pentanedioic acid]: the Ki on rhPSMA [2] (setting [5]) came out at 1.35 ± 0.54 nM. The compound also registered a 50% inhibitory concentration (IC50) at rhPSMA [2] (Table 1, 20 μM NAAG) of 30.5 ± 12.1 nM.

In the case of `O=C(O)CC[C@H](NC(=O)N[C@@H](CCCCn1cc(COCCNc2ccc([N+](=O)[O-])cc2[N+](=O)[O-])nn1)C(=O)O)C(=O)O` [2, ARM-P1, (S)-2-(3-((S)-1-carboxy-5-(4-((2-(2,4-dinitrophenylamino)ethoxy)methyl)-1H-1,2,3-triazol-1-yl)pentyl)ureido)pentanedioic acid], on rhPSMA [2] (setting [5]), the Ki came to 0.047 ± 0.005 nM. On rhPSMA [2] (Table 1, 20 μM NAAG), this compound yielded a 50% inhibitory concentration (IC50) of 1.05 ± 0.11 nM.

Regarding `O=C(O)CC[C@H](NC(=O)N[C@@H](CCCCn1cc(CNc2ccc([N+](=O)[O-])cc2[N+](=O)[O-])nn1)C(=O)O)C(=O)O` [1, ARM-P0, (S)-2-(3-((S)-1-carboxy-5-(4-((2,4-dinitrophenylamino)methyl)-1H-1,2,3-triazol-1-yl)pentyl)ureido)pentanedioic acid], the Ki at rhPSMA [2] (setting [5]) is 0.078 ± 0.018 nM. The IC50 against rhPSMA [2] (Table 1, 20 μM NAAG) is 1.76 ± 0.41 nM.

On rhPSMA [2] (setting [5]), `O=C(O)CC[C@H](NC(=O)N[C@@H](CCCCn1cc(COCCOCCOCCOCCOCCOCCOCCOCCOCCOCCOCCOCCNc2ccc([N+](=O)[O-])cc2[N+](=O)[O-])nn1)C(=O)O)C(=O)O` [7, ARM-P12] came in with an inhibition constant Ki of 1.65 ± 0.72 nM. Also, the IC50 against rhPSMA [2] (Table 1, 20 μM NAAG) came out at 37.3 ± 16.2 nM.

Turning to `O=C(O)CC[C@H](NC(=O)N[C@@H](CCCCn1cc(COCCOCCOCCOCCOCCOCCNc2ccc([N+](=O)[O-])cc2[N+](=O)[O-])nn1)C(=O)O)C(=O)O` [5, ARM-P6], affinity on rhPSMA [2] (setting [5]) was put at a Ki of 0.101 ± 0.027 nM. The compound further gave a half-inhibitory concentration (IC50) on rhPSMA [2] (Table 1, 20 μM NAAG) of 2.29 ± 0.6 nM.

`COCCOCCOCCOCCOCCOCCOCCOCCOCc1cn(CCCC[C@H](NC(=O)N[C@@H](CCC(=O)O)C(=O)O)C(=O)O)nn1` [11, MeO-P8, (S)-2-(3-((S)-5-(4-2,5,8,11,14,17,20,23,26-nonaoxaheptacosyl-1H-1,2,3-triazol-1-yl)-1-carboxypentyl)ureido)pentanedioic acid] came in with an inhibition constant Ki at rhPSMA [2] (setting [5]) of 5.79 ± 2.54 nM. This compound gave a half-maximal inhibitory concentration (IC50) against rhPSMA [2] (Table 1, 20 μM NAAG) of 131 ± 57.6 nM.

Regarding `COCCOCCOCCOCCOCCOCCOCCOCCOCCOCCOCCOCCOCc1cn(CCCC[C@H](NC(=O)N[C@@H](CCC(=O)O)C(=O)O)C(=O)O)nn1` [12, MeO-P12, (S)-2-(3-((S)-5-(4-2,5,8,11,14,17,20,23,26,29,32,35,38-tridecaoxanonatriacontyl-1H-1,2,3-triazol-1-yl)-1-carboxypentyl)ureido)pentanedioic acid], the Ki on rhPSMA [2] (setting [5]) came out at 7.3 ± 2.6 nM. The IC50 on rhPSMA [2] (Table 1, 20 μM NAAG) was found to be 165 ± 58.9 nM.
